{"source": "patent US20180042874A1", "about": "“METHOD FOR TREATING OSTEOPOROSIS” (China Medical University, priority 2016, published 2018)", "system": "RAW 264.7 cells", "assay": "Cytotoxicity test (MTT colorimetric assay)", "type": "cell-based", "source_text": "MTT (3-(4,5-dimethylthiazol-2-yl)-2,5-diphenyl tetrazolium bromide is yellow when dissolved in a phenol red-free medium. The yellow MTT solution is reduced by succinate dehydrogenase in mitochondria of living cells into purple insoluble formazan crystals, deposited in the cells generating blue formazan crystals. The amount of formazan crystals produced is proportional to the number of viable cells (succinate dehydrogenase in dead cells is degraded and unable to reduce MTT). Formazan crystals can be dissolved in acidic isopropanol or dimethyl sulfoxide (DMSO), and an enzyme linked immunosorbent assay detector can be used to measure the light absorption value, therefore, MTT can be used as a marker for cell survival rate.\nCytotoxicity test of the compound of formula I in RAW 264.7 cells was studied and detected by using the MTT colorimetric assay. […] After being cultured in an incubator at 37° C. for 4 hours, equivalent amount of cell culture solution by volume was added into dimethyl sulfoxide to dissolve MTT Formazan, 100 μl was respectively collected and placed in a 96 well-plate, and the light absorption value at 570 nm was determined by using an enzyme immunosorbent assay detector. The Cell survival rate (%) was calculated by using the following formula: (light absorption value of drug-treated cells)/light absorption value of culture solution-treated cells)×100%.\nFirstly, we would like to know whether the compound of formula I were toxic to RAW 264.7 cells, and concentrations appropriate for subsequent experiments were to be selected. After being treated with 0, 1, 5, 10, 20, 40, 80 μg/ml of the compound of formula I for 72 hours, detected with the MTT colorimetric assay. […] To confirm the selected concentrations of the compound of formula I would not produce cytotoxin in the subsequent experiments, 10 μg/ml, 20 μg/ml of the compound of formula I were respectively used for treatment of 3, 6, 9, 12 days, the culture solution was replaced with fresh ones of the same condition once every three days and then detected with the MTT colorimetric assay.", "data": [{"smiles": "CNC(=O)N[C@]1(C)CCC[C@@]2(C)C3CC[C@@]4(C)C[C@]3(CCC21)CC4=O", "note": "(single isomer, unassigned; ent-16) [compound of formula I, ent-16-oxobeyeran-19-N-methylureido]", "values": [{"measurement": "cytotoxicity over time (MTT)", "setting": "10 μg/ml, 3, 6, 9, 12 days", "result": "no cytotoxin was produced"}, {"measurement": "concentration above which cytotoxic (decreased survival rate)", "setting": "72 hours", "result": "higher than 40 μg/ml"}, {"measurement": "IC50", "setting": "Mus musculus, RAW264.7, 72 hours, 0-80 μg/ml, read-out: IC50 (cell survival rate, MTT)", "result": "~40", "unit": "µg/mL"}]}]}
